Measurements published in PubChem BioAssay (NCI).
“And” between values parts separate entries of the source, which are not always exact repeats. Identical values can stand only once.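 A five-concentration, 48-hour dose response in 96-well plates underlies each endpoint, interpolated linearly between surrounding concentrations. GI50 marks 50% less growth. TGI: total growth inhibition.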

System: MDA-MB-468 breast
Experiment: inhibition of tumour cell growth, NCI panel, 48 h

Nc1c(C(=O)c2ccc(C#CCN3CCOCC3)cc2)cnn1-c1ccc(F)cc1
GI50: > 25 µM | TGI: > 25 µM

CN1CCN(Cc2ccc(NC(=O)c3cncc(C#Cc4c(N)ncc5c(F)cccc45)c3)cc2C(F)(F)F)CC1
GI50: 0.872 µM | TGI: 1.69 µM

COc1ccc2nc3cc(Cl)ccc3c(NCCNCC(O)CO)c2c1 (stereo not given)
GI50: 0.975 µM | TGI: 3.16 µM

COc1ccc(/C(=C/c2ccc3ccccc3c2)c2nn[nH]n2)cc1OC
GI50: 21.5 µM | TGI: > 100 µM

CC[C@@]1(O)C(=O)OCc2c1cc1n(c2=O)Cc2cc3c(CN(C)C)c(O)ccc3nc2-1
GI50: < 0.01 µM and 0.0234 µM | TGI: 0.0426 µM and 0.108 µM

O=C(COc1cccc(/C=C2\COc3ccccc3C2=O)c1)c1ccccc1
GI50: 1.78 µM | TGI: 4.6 µM

CCOC(=O)Nc1ccc2nc(N3CCCCCC3)sc2c1
GI50: 0.391 µM | TGI: 3.11 µM

CC(=O)OC1CC2C(C)(C)CCC[C@]2(C)C2=C1C(O)=C(C(C)C)C(=O)C2=O (stereo not given in full)
GI50: 1.56 µM | TGI: 3.81 µM

O=C(Nc1ccc(Oc2ccc(NC(=O)Nc3ccccc3Cl)cc2)cc1)Nc1ccccc1Cl
GI50: 11 µM | TGI: 49.6 µM

O=C(NCCCl)NCCN1c2nc3ccccc3cc2Sc2cc3ccccc3nc21
GI50: 1.43 µM | TGI: 5.42 µM

c1ccc(COCC[P+](c2ccccc2)(c2ccccc2)c2ccccc2)cc1
GI50: 0.239 µM | TGI: 1.95 µM

NS(=O)(=O)c1ccc(N=Nc2c(O)[nH]c3ccc(C(=O)NCCc4cnc[nH]4)cc23)cc1
GI50: > 25 µM | TGI: > 25 µM

COc1ccc(C2=NN(C=O)C(c3ccc(OS(=O)(=O)c4ccc(C)cc4)c(OC)c3)C2)cc1 (stereo not given)
GI50: 1.44 µM | TGI: 7.7 µM

CCCCCCCCCCCCNC(=O)N[C@H](C(=O)N[C@H]1/C=C/CCNC(=O)/C=C/[C@H](C)NC1=O)C(C)C
GI50: 0.0531 µM | TGI: 0.218 µM

CCCCOC(=O)/C=C\C(=O)NC(N)=O
GI50: 4.29 µM | TGI: 19.4 µM

CCC(CC)c1cc(N[C@H]2CC[C@H](N)C2)n2nccc2n1
GI50: 0.438 µM | TGI: 2.39 µM

Clc1ccc(C2CC(c3cccc(Nc4ccncc4)c3)=NN2c2ccccc2)cc1 (stereo not given)
GI50: 1.51 µM | TGI: 3.05 µM

O=C(CN1CCN(CCN2C(=O)c3cccc4cccc(c34)C2=O)CC1)Nc1ccc2ncsc2c1
GI50: 4.79 µM | TGI: 22.3 µM

COc1cc(-c2cc(-c3cccs3)c(C#N)c(N3CCOCC3)n2)cc(OC)c1OC
GI50: 1.99 µM | TGI: 7.06 µM

NC(=O)c1cc(I)ccc1NC(=O)/C=C/c1ccccc1Cl
GI50: 0.374 µM | TGI: 7.67 µM

CCN(CC)c1ccc2c(c1)Oc1nc(N)c(C#N)c(N)c1C2Sc1ccc(F)cc1 (stereo not given)
GI50: 1.61 µM | TGI: 3.13 µM

FC(F)(F)c1cc(Br)cc(-c2cc(-c3ccc4c(c3)OCCO4)[nH]n2)c1
GI50: 0.345 µM | TGI: > 100 µM

Cc1ccc(S(=O)(=O)OCC(=O)Nc2ccc(C(=O)O)c(O)c2)cc1
GI50: 29.1 µM | TGI: 98.6 µM

COC(=O)[C@H](Cc1ccccc1)NNC(=O)c1csc([C@@H](C[C@H](C(C)C)N(C)C(=O)[C@@H](NC(=O)[C@H]2CCCCN2C)C2CC2)OC(C)=O)n1
GI50: 0.00652 µM and 0.0025 µM | TGI: 25 µM and > 100 µM

CCN(CC)S(=O)(=O)c1ccc(-c2nc(C(Cl)Cl)nc3cc(-c4ccc(F)cc4)nn23)cc1
GI50: 1.78 µM | TGI: 6.46 µM

Nc1nc(=S)c2ncn(C3OC(CO)C(O)C3O)c2[nH]1 (stereo not given)
GI50: 0.253 µM | TGI: 1.69 µM

CON=C1C[C@]2(C[C@@H]3C[C@@H](C/C=C(\C)C[C@@H](C)/C=C/C=C4\CO[C@@H]5[C@H](O)C(C)=C[C@@H](C(=O)O3)[C@]45O)O2)O[C@H](/C(C)=C/C(C)C)[C@H]1C
GI50: 12.8 µM | TGI: 27.5 µM

Cc1ccc(/C=C(/C#N)n2nnc3ncccc32)cc1
GI50: 2.49 µM | TGI: 11.2 µM

O=C(/C=C/c1ccco1)Nc1ncc(Cc2cccc(C(F)(F)F)c2)s1
GI50: 0.111 µM | TGI: 6.93 µM

Cc1cc(O[C@@H]2O[C@@H](C)[C@H](O)[C@@H](O)[C@H]2O)c2c3c(c(O[C@@H]4O[C@@H](C)[C@H](O)[C@@H](O)[C@H]4O)cc2c1)C(=O)c1c(O)cccc1C3=O
GI50: 24.5 µM | TGI: > 30 µM
